{"source": "patent US12343326B2", "about": "“Psychoactive medicines and their use for treating psychiatric and neurological conditions and disorders” (Transcend Therapeutics, Inc., priority 2021, dated 2025)", "assay_in_all_cases": "β-arrestin based GPCR screen (PathHunter / GPCRmax), agonist mode", "assay_type_in_all_cases": "cell-based", "parameters_in_all_cases": "host or cells: PathHunter cell lines", "key": {"[1]": {"molecular_target": "168 GPCRs (Homo sapiens, UniProt P35367)", "sequence (P35367 whole entry)": "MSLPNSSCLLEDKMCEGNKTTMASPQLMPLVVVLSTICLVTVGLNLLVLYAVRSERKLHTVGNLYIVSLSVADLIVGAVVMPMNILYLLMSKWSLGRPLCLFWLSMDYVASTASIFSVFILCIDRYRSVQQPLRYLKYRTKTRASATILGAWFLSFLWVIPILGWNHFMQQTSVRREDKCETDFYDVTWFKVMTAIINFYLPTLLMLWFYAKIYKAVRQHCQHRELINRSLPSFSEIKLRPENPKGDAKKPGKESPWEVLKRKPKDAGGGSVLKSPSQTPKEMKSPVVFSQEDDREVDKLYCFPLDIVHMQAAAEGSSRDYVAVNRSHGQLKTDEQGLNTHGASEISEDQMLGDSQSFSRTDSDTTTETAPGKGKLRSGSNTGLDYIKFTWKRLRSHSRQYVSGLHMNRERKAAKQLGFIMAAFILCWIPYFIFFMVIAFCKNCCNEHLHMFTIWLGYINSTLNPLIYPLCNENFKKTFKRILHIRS", "description": "(§1) For agonist determination, cells were incubated with sample to induce response. […] Vehicle concentration was 1%."}, "[2]": {"molecular_target": "T1, 168 GPCRs (Homo sapiens, UniProt P32247)", "T1 sequence (P32247 1-399)": "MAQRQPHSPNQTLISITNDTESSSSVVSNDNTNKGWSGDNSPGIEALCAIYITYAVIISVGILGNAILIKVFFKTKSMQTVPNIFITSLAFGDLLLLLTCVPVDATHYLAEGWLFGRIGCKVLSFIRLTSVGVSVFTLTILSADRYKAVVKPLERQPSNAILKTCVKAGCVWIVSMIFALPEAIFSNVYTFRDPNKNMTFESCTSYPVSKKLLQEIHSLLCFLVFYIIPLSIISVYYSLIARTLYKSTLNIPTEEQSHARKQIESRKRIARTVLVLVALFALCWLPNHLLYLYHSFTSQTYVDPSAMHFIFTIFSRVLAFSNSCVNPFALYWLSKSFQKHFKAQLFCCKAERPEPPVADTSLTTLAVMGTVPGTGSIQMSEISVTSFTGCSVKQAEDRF", "conditions": "BRS3, Agonist", "description": "as §1"}, "[3]": {"molecular_target": "168 GPCRs (Homo sapiens, UniProt P37288)", "conditions": "AVPR1A, Agonist", "description": "as §1"}, "[4]": {"molecular_target": "168 GPCRs (Homo sapiens, UniProt P55085)", "sequence (P55085 26-397)": "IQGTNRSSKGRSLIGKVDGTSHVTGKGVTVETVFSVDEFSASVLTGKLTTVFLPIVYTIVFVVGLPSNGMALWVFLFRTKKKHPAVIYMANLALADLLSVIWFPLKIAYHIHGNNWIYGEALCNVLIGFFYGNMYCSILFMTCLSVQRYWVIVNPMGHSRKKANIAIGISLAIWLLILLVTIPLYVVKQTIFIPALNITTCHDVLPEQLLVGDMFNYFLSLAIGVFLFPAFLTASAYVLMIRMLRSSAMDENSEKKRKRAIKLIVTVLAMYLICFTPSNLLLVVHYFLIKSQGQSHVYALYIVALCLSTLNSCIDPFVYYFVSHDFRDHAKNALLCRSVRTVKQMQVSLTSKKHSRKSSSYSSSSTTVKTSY", "description": "as §1"}, "[5]": {"molecular_target": "168 GPCRs (Homo sapiens, UniProt P30550)", "sequence (P30550 whole entry)": "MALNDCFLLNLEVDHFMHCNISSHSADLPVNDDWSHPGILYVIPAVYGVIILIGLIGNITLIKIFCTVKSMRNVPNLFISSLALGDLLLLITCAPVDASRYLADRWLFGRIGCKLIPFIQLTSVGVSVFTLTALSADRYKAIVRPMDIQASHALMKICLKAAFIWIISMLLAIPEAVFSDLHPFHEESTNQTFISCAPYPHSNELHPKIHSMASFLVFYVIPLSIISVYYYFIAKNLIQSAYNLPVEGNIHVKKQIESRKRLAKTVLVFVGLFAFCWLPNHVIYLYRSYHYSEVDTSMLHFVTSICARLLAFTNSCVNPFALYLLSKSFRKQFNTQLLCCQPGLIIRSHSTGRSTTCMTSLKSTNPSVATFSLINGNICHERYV", "conditions": "GRPR", "description": "as §1"}, "[6]": {"molecular_target": "168 GPCRs (Homo sapiens, UniProt P47872)", "sequence (P47872 23-440)": "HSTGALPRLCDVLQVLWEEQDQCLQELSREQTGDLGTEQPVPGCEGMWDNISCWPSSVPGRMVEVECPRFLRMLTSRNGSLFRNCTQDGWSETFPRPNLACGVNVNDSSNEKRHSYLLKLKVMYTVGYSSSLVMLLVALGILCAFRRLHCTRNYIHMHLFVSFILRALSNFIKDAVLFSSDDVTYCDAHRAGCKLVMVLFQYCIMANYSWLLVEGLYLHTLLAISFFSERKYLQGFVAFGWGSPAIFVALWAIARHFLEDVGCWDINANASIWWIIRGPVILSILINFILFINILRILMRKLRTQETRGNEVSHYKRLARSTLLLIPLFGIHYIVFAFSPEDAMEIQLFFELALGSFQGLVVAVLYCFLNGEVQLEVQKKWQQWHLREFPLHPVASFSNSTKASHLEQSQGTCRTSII", "conditions": "SCTR", "description": "as §1"}, "[7]": {"molecular_target": "168 GPCRs (Homo sapiens, UniProt O43193)", "sequence (O43193 whole entry)": "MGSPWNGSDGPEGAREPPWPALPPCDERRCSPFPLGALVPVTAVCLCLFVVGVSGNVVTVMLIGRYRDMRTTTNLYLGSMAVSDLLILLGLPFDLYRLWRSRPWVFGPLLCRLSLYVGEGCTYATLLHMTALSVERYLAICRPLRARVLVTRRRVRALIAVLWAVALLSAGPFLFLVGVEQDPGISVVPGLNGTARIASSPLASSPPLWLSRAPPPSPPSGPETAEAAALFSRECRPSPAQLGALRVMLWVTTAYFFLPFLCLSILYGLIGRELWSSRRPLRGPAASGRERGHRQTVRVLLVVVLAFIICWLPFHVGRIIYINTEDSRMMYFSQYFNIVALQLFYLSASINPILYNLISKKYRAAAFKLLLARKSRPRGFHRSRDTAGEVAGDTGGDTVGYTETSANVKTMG", "conditions": "MLNR", "description": "as §1"}, "[8]": {"molecular_target": "168 GPCRs (Homo sapiens, UniProt P25021)", "description": "as §1"}, "[9]": {"molecular_target": "168 GPCRs (Homo sapiens, UniProt P49683)", "sequence (P49683 whole entry)": "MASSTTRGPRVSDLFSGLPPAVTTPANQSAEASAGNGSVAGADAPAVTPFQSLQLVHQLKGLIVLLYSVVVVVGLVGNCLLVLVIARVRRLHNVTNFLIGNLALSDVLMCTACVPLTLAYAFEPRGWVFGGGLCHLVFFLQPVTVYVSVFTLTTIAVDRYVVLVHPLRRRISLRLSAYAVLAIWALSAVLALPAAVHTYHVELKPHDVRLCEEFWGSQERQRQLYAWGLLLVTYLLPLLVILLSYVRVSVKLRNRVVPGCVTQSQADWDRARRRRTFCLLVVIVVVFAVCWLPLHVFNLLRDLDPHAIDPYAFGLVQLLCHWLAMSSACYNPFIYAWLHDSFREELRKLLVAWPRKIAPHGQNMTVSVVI", "conditions": "PRLHR", "description": "as §1"}, "[10]": {"molecular_target": "168 GPCRs (Homo sapiens, UniProt P46091)", "description": "as §1"}, "[11]": {"molecular_target": "168 GPCRs (Homo sapiens, UniProt Q9NSD7)", "sequence (Q9NSD7 whole entry)": "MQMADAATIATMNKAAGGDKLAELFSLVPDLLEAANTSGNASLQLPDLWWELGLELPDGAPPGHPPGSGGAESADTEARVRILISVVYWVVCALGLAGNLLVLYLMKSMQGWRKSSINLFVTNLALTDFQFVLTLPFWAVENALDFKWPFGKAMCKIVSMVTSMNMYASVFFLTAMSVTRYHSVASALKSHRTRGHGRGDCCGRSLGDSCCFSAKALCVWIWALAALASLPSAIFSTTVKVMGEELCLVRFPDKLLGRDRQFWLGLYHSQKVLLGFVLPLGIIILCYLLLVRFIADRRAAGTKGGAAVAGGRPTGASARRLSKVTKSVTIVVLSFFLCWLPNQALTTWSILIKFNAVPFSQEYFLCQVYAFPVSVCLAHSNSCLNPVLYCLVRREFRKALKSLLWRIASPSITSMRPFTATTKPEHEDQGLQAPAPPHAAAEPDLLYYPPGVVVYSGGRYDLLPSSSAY", "description": "as §1"}, "[12]": {"molecular_target": "168 GPCRs (Homo sapiens, UniProt P21452)", "description": "as §1"}, "[13]": {"molecular_target": "168 GPCRs (Homo sapiens, UniProt P30556)", "conditions": "AGTR1, Agonist", "description": "as §1"}, "[14]": {"molecular_target": "168 GPCRs (Homo sapiens, UniProt P23945)", "sequence (P23945 18-695)": "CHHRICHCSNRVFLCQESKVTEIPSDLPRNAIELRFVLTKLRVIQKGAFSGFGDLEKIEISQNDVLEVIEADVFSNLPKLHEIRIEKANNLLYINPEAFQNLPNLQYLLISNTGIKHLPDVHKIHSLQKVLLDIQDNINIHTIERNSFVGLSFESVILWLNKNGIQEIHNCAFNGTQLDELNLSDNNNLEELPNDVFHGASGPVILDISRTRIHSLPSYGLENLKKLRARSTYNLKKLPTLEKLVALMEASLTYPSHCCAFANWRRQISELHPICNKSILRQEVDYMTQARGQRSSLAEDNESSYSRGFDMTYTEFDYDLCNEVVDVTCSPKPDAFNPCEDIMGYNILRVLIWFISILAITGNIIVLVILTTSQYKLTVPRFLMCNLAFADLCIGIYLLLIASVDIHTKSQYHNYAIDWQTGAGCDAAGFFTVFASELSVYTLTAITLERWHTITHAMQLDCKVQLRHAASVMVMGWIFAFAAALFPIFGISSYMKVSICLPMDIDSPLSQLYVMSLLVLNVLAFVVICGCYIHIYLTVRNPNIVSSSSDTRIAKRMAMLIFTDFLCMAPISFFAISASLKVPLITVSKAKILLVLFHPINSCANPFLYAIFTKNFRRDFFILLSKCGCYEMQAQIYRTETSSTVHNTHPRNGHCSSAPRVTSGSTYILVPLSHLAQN", "conditions": "FSHR", "description": "as §1"}, "[15]": {"molecular_target": "168 GPCRs (Homo sapiens, UniProt Q8TDV5)", "sequence (Q8TDV5 whole entry)": "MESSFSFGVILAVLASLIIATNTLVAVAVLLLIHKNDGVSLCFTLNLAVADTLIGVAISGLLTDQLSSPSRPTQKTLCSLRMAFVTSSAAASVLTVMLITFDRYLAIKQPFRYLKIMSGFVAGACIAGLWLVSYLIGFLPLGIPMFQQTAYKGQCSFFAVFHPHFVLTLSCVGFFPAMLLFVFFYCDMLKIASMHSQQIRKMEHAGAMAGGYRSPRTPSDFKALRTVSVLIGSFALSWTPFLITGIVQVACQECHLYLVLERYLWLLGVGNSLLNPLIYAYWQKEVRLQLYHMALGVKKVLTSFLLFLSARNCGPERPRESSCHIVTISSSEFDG", "description": "as §1"}, "[16]": {"molecular_target": "168 GPCRs (Homo sapiens, UniProt Q9HB89)", "conditions": "NMU1R", "description": "as §1"}, "[17]": {"molecular_target": "168 GPCRs (Homo sapiens, UniProt P32302)", "description": "as §1"}, "[18]": {"molecular_target": "168 GPCRs (Homo sapiens, UniProt Q13324)", "description": "as §1"}, "[19]": {"molecular_target": "168 GPCRs (Homo sapiens, UniProt Q96LB1)", "sequence (Q96LB1 whole entry)": "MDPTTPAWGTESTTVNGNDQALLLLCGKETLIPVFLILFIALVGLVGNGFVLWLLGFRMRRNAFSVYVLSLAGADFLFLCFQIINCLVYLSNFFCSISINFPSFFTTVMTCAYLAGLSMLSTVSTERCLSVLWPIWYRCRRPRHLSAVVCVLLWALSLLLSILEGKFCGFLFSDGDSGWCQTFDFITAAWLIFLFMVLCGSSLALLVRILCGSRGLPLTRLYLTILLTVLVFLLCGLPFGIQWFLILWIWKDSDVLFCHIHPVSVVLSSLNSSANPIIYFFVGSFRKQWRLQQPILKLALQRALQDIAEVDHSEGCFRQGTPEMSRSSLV", "description": "as §1"}, "[20]": {"molecular_target": "168 GPCRs (Homo sapiens, UniProt P47900)", "sequence (P47900 whole entry)": "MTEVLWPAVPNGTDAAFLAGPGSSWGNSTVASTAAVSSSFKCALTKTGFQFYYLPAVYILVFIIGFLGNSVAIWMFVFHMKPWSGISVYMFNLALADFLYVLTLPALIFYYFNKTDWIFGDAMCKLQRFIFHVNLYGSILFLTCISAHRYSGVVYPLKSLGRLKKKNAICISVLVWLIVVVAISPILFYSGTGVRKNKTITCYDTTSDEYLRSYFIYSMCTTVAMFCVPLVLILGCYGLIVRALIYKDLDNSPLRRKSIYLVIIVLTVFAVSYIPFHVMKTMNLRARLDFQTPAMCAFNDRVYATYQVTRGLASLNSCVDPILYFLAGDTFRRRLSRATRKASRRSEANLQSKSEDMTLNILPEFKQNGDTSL", "description": "as §1"}}}
{"compound": "CNC(C)C(=O)c1ccc2c(c1)OCO2", "note": "(stereo not shown) [methylone, 3,4-methylenedioxy-N-methylcathinone]", "values": [{"measurement": "activity at 10 µM", "setting": "[1]; HRH1, Agonist mode, 10 uM", "result": 2.5, "unit": "%"}, {"measurement": "activity at 1 µM", "setting": "[1]; HRH1, Agonist, 1 uM", "result": 3, "unit": "%"}, {"measurement": "activity at 1 µM", "setting": "[2]; 1 uM", "result": 4.5, "unit": "%"}, {"measurement": "activity at 10 µM", "setting": "[2]; 10 uM", "result": -4.6, "unit": "%"}, {"measurement": "activity at 1 µM", "setting": "[3]; 1 uM", "result": -0.6, "unit": "%"}, {"measurement": "activity at 10 µM", "setting": "[3]; 10 uM", "result": -0.5, "unit": "%"}, {"measurement": "activity at 10 µM", "setting": "[4]; F2RL1, Agonist mode, 10 uM", "result": 3.8, "unit": "%"}, {"measurement": "activity at 1 µM", "setting": "[4]; F2RL1, Agonist, 1 uM", "result": -0.6, "unit": "%"}, {"measurement": "activity at 10 µM", "setting": "[5]; Agonist mode, 10 uM", "result": -0.1, "unit": "%"}, {"measurement": "activity at 1 µM", "setting": "[5]; Agonist, 1 uM", "result": 0, "unit": "%"}, {"measurement": "activity at 10 µM", "setting": "[6]; Agonist mode, 10 uM", "result": -1.4, "unit": "%"}, {"measurement": "activity at 1 µM", "setting": "[6]; Agonist, 1 uM", "result": -2.6, "unit": "%"}, {"measurement": "activity at 10 µM", "setting": "[7]; Agonist mode, 10 uM", "result": -1, "unit": "%"}, {"measurement": "activity at 1 µM", "setting": "[7]; Agonist, 1 uM", "result": -1.5, "unit": "%"}, {"measurement": "activity at 10 µM", "setting": "[8]; HRH2, Agonist mode, 10 uM", "result": 2.8, "unit": "%"}, {"measurement": "activity at 1 µM", "setting": "[8]; HRH2, Agonist, 1 uM", "result": -2.5, "unit": "%"}, {"measurement": "activity at 10 µM", "setting": "[9]; Agonist mode, 10 uM", "result": -0.2, "unit": "%"}, {"measurement": "activity at 1 µM", "setting": "[9]; Agonist, 1 uM", "result": -2.2, "unit": "%"}, {"measurement": "activity at 10 µM", "setting": "[10]; GPR1, Agonist mode, 10 uM", "result": -0.7, "unit": "%"}, {"measurement": "activity at 1 µM", "setting": "[10]; GPR1, Agonist, 1 uM", "result": -0.5, "unit": "%"}, {"measurement": "activity at 10 µM", "setting": "[11]; RXFP3, Agonist mode, 10 uM", "result": -8.7, "unit": "%"}, {"measurement": "activity at 1 µM", "setting": "[11]; RXFP3, Agonist, 1 uM", "result": -7.6, "unit": "%"}, {"measurement": "activity at 10 µM", "setting": "[12]; TACR2, Agonist mode, 10 uM", "result": -3.3, "unit": "%"}, {"measurement": "activity at 1 µM", "setting": "[12]; TACR2, Agonist, 1 uM", "result": -1.9, "unit": "%"}, {"measurement": "activity at 1 µM", "setting": "[13]; 1 uM", "result": -2.8, "unit": "%"}, {"measurement": "activity at 10 µM", "setting": "[13]; 10 uM", "result": -1, "unit": "%"}, {"measurement": "activity at 10 µM", "setting": "[14]; Agonist mode, 10 uM", "result": 2.2, "unit": "%"}, {"measurement": "activity at 1 µM", "setting": "[14]; Agonist, 1 uM", "result": -1, "unit": "%"}, {"measurement": "activity at 10 µM", "setting": "[15]; GPR119, Agonist mode, 10 uM", "result": -2.2, "unit": "%"}, {"measurement": "activity at 1 µM", "setting": "[15]; GPR119, Agonist, 1 uM", "result": -5.8, "unit": "%"}, {"measurement": "activity at 10 µM", "setting": "[16]; Agonist mode, 10 uM", "result": 2, "unit": "%"}, {"measurement": "activity at 1 µM", "setting": "[16]; Agonist, 1 uM", "result": 1.3, "unit": "%"}, {"measurement": "activity at 10 µM", "setting": "[17]; CXCR5, Agonist mode, 10 uM", "result": 1.4, "unit": "%"}, {"measurement": "activity at 1 µM", "setting": "[17]; CXCR5, Agonist, 1 uM", "result": 2.5, "unit": "%"}, {"measurement": "activity at 10 µM", "setting": "[18]; CRHR2, Agonist mode, 10 uM", "result": 0.9, "unit": "%"}, {"measurement": "activity at 1 µM", "setting": "[18]; CRHR2, Agonist, 1 uM", "result": 0.9, "unit": "%"}, {"measurement": "activity at 10 µM", "setting": "[19]; MRGPRX2, Agonist mode, 10 uM", "result": 0.73, "unit": "%"}, {"measurement": "activity at 1 µM", "setting": "[19]; MRGPRX2, Agonist, 1 uM", "result": 1.4, "unit": "%"}, {"measurement": "activity at 10 µM", "setting": "[20]; P2RY1, Agonist mode, 10 uM", "result": -4.1, "unit": "%"}, {"measurement": "activity at 1 µM", "setting": "[20]; P2RY1, Agonist, 1 uM", "result": 2.2, "unit": "%"}]}
